Species on record: Rattus norvegicus
Assay: Open TG-GATES - Regimen: Single
Format: toxicity, organism-based, Sprague-Dawley
Parameters: regimen Single, gender Male, age 6 weeks
Details: in vivo, po, 1000 mg/kg, route gavage, dose level High; for APTT / Bas / Eos / Fbg / Hb / Ht / Lym / MCH / MCHC / MCV / Mono / Neu / PT / Plat / RBC / Ret / WBC: tissue Blood; for KIDNEY_L / KIDNEY_R / KIDNEY_TOTAL: tissue Kidney; for LIVER: tissue Liver; for A/G / ALP / ALT / AST / BUN / CRE / Ca / Cl / DBIL / GLC / IP / K / LDH / Na / PL / RALB / TBIL / TC / TG / TP / gamma-GTP: tissue Plasma

CNC(=C[N+](=O)[O-])NCCSCc1ccc(CN(C)C)o1 [RANITIDINE]
TERMINAL_BW (3 h): 218.6 g | APTT (3 h): 21.3 s | Bas (3 h): 0% | Eos (3 h): 1% | Fbg (3 h): 209 mg/dL | Hb (3 h): 12.7 g/dL | Ht (3 h): 36.7% | Lym (3 h): 76.2% | MCH (3 h): 21.7 pg | MCHC (3 h): 34.7% | MCV (3 h): 62.7 fL | Mono (3 h): 2.4% | Neu (3 h): 17.4% | PT (3 h): 12.5 s | Plat (3 h): 116.7 x10_4/uL | RBC (3 h): 585.2 x10_4/ul | Ret (3 h): 7.1% | WBC (3 h): 84.3 x10_2/uL | KIDNEY_L (3 h): 1 g | KIDNEY_R (3 h): 1 g | KIDNEY_TOTAL (3 h): 2.1 g | LIVER (3 h): 10.5 g | A/G (3 h): 1.7 | ALP (3 h): 944 IU/L | ALT (3 h): 35.8 IU/L | AST (3 h): 67.2 IU/L | BUN (3 h): 9.4 mg/dL | CRE (3 h): 0.4 mg/dL | Ca (3 h): 10.5 mg/dL | Cl (3 h): 104.4 meq/L | DBIL (3 h): 0.064 mg/dL | GLC (3 h): 181.2 mg/dL | IP (3 h): 8.2 mg/dL | K (3 h): 3.7 meq/L | LDH (3 h): 148 IU/L | Na (3 h): 141.4 meq/L | PL (3 h): 133.6 mg/dL | RALB (3 h): 3.3 g/dL | TBIL (3 h): 0.1 mg/dL | TC (3 h): 68 mg/dL | TG (3 h): 44.8 mg/dL | TP (3 h): 5.3 g/dL | gamma-GTP (3 h): 1.2 IU/L | TERMINAL_BW (6 h): 213.4 g | APTT (6 h): 18.8 s | Bas (6 h): 0% | Eos (6 h): 1% | Fbg (6 h): 232.8 mg/dL | Hb (6 h): 13.4 g/dL | Ht (6 h): 38% | Lym (6 h): 72.8% | MCH (6 h): 21.7 pg | MCHC (6 h): 35.1% | MCV (6 h): 62 fL | Mono (6 h): 3% | Neu (6 h): 18.4% | PT (6 h): 12.7 s | Plat (6 h): 106.2 x10_4/uL | RBC (6 h): 613.8 x10_4/ul | Ret (6 h): 7.1% | WBC (6 h): 88.7 x10_2/uL | KIDNEY_L (6 h): 0.9 g | KIDNEY_R (6 h): 0.9 g | KIDNEY_TOTAL (6 h): 1.9 g | LIVER (6 h): 9.8 g | A/G (6 h): 1.7 | ALP (6 h): 906.4 IU/L | ALT (6 h): 37.2 IU/L | AST (6 h): 63.8 IU/L | BUN (6 h): 9.4 mg/dL | CRE (6 h): 0.4 mg/dL | Ca (6 h): 10.6 mg/dL | Cl (6 h): 104 meq/L | DBIL (6 h): 0.066 mg/dL | GLC (6 h): 193.4 mg/dL | IP (6 h): 8.3 mg/dL | K (6 h): 3.6 meq/L | LDH (6 h): 126.4 IU/L | Na (6 h): 141 meq/L | PL (6 h): 151.4 mg/dL | RALB (6 h): 3.4 g/dL | TBIL (6 h): 0.1 mg/dL | TC (6 h): 80.8 mg/dL | TG (6 h): 47.8 mg/dL | TP (6 h): 5.4 g/dL | gamma-GTP (6 h): 1.4 IU/L | TERMINAL_BW (9 h): 210.2 g | APTT (9 h): 20.1 s | Bas (9 h): 0% | Eos (9 h): 1% | Fbg (9 h): 242.2 mg/dL | Hb (9 h): 13.2 g/dL | Ht (9 h): 38% | Lym (9 h): 68.6% | MCH (9 h): 21.8 pg | MCHC (9 h): 34.8% | MCV (9 h): 62.5 fL | Mono (9 h): 2.4% | Neu (9 h): 24.2% | PT (9 h): 12.6 s | Plat (9 h): 111.9 x10_4/uL | RBC (9 h): 607.2 x10_4/ul | Ret (9 h): 7.3% | WBC (9 h): 74.1 x10_2/uL | KIDNEY_L (9 h): 1 g | KIDNEY_R (9 h): 1 g | KIDNEY_TOTAL (9 h): 1.9 g | LIVER (9 h): 9.2 g | A/G (9 h): 1.6 | ALP (9 h): 955.2 IU/L | ALT (9 h): 36 IU/L | AST (9 h): 65.8 IU/L | BUN (9 h): 8.8 mg/dL | CRE (9 h): 0.3 mg/dL | Ca (9 h): 10.6 mg/dL | Cl (9 h): 103.8 meq/L | DBIL (9 h): 0.066 mg/dL | GLC (9 h): 197 mg/dL | IP (9 h): 8.6 mg/dL | K (9 h): 3.6 meq/L | LDH (9 h): 126 IU/L | Na (9 h): 140.8 meq/L | PL (9 h): 152 mg/dL | RALB (9 h): 3.4 g/dL | TBIL (9 h): 0.1 mg/dL | TC (9 h): 84.6 mg/dL | TG (9 h): 30.2 mg/dL | TP (9 h): 5.5 g/dL | gamma-GTP (9 h): 1.2 IU/L | TERMINAL_BW (24 h): 228.9 g | APTT (24 h): 20.1 s | Bas (24 h): 0.2% | Eos (24 h): 1% | Fbg (24 h): 235 mg/dL | Hb (24 h): 13.9 g/dL | Ht (24 h): 39.1% | Lym (24 h): 79% | MCH (24 h): 22.4 pg | MCHC (24 h): 35.5% | MCV (24 h): 63 fL | Mono (24 h): 3.2% | Neu (24 h): 15% | PT (24 h): 11.7 s | Plat (24 h): 122.4 x10_4/uL | RBC (24 h): 621.4 x10_4/ul | Ret (24 h): 5.9% | WBC (24 h): 75.4 x10_2/uL | KIDNEY_L (24 h): 1 g | KIDNEY_R (24 h): 1 g | KIDNEY_TOTAL (24 h): 2 g | LIVER (24 h): 10.7 g | A/G (24 h): 1.6 | ALP (24 h): 881.6 IU/L | ALT (24 h): 33.2 IU/L | AST (24 h): 60.4 IU/L | BUN (24 h): 15.4 mg/dL | CRE (24 h): 0.4 mg/dL | Ca (24 h): 10.8 mg/dL | Cl (24 h): 101.6 meq/L | DBIL (24 h): 0.078 mg/dL | GLC (24 h): 204.2 mg/dL | IP (24 h): 7.9 mg/dL | K (24 h): 3.7 meq/L | LDH (24 h): 127.8 IU/L | Na (24 h): 140.4 meq/L | PL (24 h): 155.6 mg/dL | RALB (24 h): 3.4 g/dL | TBIL (24 h): 0.1 mg/dL | TC (24 h): 84.4 mg/dL | TG (24 h): 67.8 mg/dL | TP (24 h): 5.6 g/dL | gamma-GTP (24 h): 0.8 IU/L
